Results: patent publication US8394785B2, “Methods for the treatment and amelioration of urticaria” (Jado Technologies GmbH, priority 2005, dated 2013)

Tests used:
[1] = tested on: allergic volunteers with known type-1-sensitizations; assay: Prick test with histamine after topical pre-treatment, wheal size; type: in vivo, human; details: n = 5; for histamine-prick wheal ± standard error: miltefosine pre-treatment (6% solution, topical, 2 h before); for histamine-prick % inhibition ± standard error (by miltefosine pre-treatment): versus placebo pre-treatment
Description: To provide proof of concept that miltefosine inhibits IgE-dependent human mast cell stimulation and mediator release in vivo we performed a study on selected allergic volunteers with known type-1-sensitizations (n=5). The volunteers were subjected to standard prick testing with their known allergens on both forearms as well as with positive (histamine) and negative (saline) controls (Table 3). Using a double blind, placebo controlled approach, one forearm of each test person was pre-treated with topical miltefosine (6% solution). The contralateral side was subjected to a pre-treatment with a placebo solution (saline), both two hours prior to the prick test. Subsequently, developing skin symptoms were measured with high-quality standardized methods, i.e. macroscopic standard prick test-evaluation (Heinzerling et al 2005), volumetric imaging, thermography, and digital time lapse photography (DTLP). Volunteers known to suffer from permanent severe diseases, especially those affecting the immune system, were excluded from the study. None of the volunteers took any oral […] or leukotriene antagonists within 7 days prior to the beginning of the study. Moreover, none of them took any oral or depot corticosteroids or other immunosuppressive drugs within 21 days before the testing. The course of developing lesions (wheal and erythema size) was assessed macroscopically by measuring vertical and perpendicular diameter of wheal and erythema size. Subsequently, the sum of both diameters was divided by two. In addition, volumetric and thermographic imaging as well as DTLP was performed before and at defined time points after prick testing. To assess the course of developing prick test lesions, wheal size was assessed macroscopically by measuring the diameters at distinct time points after prick testing.

[2] = tested on: membrane integrity (lactate dehydrogenase release)

`CCCCCCCCCCCCCCCCOP(=O)([O-])OCC[N+](C)(C)C` [Compound 3, 1-hexadecylphosphoryl-choline] was tested, and the “histamine-prick wheal ± standard error” value ([1]; 15 minutes after prick testing) was 4.40 ± 0.86 mm, the “histamine-prick wheal ± standard error” value ([1]; 20 minutes after prick testing) was 4.30 ± 1.08 mm and the “histamine-prick wheal ± standard error” value ([1]; 30 minutes after prick testing) was 3.40 ± 1.43 mm. For the same compound, the “histamine-prick % inhibition ± standard error (by miltefosine pre-treatment)” value ([1]; 15 minutes after prick testing) was 22.4 ± 14.2%, the “histamine-prick % inhibition ± standard error (by miltefosine pre-treatment)” value ([1]; 20 minutes after prick testing) was 19.2 ± 23.1% and the “histamine-prick % inhibition ± standard error (by miltefosine pre-treatment)” value ([1]; 30 minutes after prick testing) was −7.9 ± 23.2%. It also gave a CD50 [2] of 69.5 µM.
